From article PMC10683472, “Deep Learning-Driven Library Design for the De Novo Discovery of Bioactive Thiopeptides” (ACS Central Science, 2023)
*1 amine or outer side, *2 acyl side, *3 side chain or, on linkers, in order; H or OH if unused. Where a SMILES comes first, the peptide text is derived from it. Where no end group is shown, it is not given here. [ ]: non-standard residue; d: D form. hGln = L-homoglutamine, NC(=O)CCC[C@H](N[*:1])C(=O)[*:2]; pyridine‑bisazole = not defined here; Nle = CCCC[C@H](N)C(=O)O

T1: Human TLR10 Fc Chimera protein (extracellular domain) (Homo sapiens, UniProt Q9BXR5)
T1 construct: Chimera protein (extracellular domain, amino acid 20-576;); Fc (chimera); purchased R&D system #6619-TR-050
T1 sequence (Q9BXR5 20-576): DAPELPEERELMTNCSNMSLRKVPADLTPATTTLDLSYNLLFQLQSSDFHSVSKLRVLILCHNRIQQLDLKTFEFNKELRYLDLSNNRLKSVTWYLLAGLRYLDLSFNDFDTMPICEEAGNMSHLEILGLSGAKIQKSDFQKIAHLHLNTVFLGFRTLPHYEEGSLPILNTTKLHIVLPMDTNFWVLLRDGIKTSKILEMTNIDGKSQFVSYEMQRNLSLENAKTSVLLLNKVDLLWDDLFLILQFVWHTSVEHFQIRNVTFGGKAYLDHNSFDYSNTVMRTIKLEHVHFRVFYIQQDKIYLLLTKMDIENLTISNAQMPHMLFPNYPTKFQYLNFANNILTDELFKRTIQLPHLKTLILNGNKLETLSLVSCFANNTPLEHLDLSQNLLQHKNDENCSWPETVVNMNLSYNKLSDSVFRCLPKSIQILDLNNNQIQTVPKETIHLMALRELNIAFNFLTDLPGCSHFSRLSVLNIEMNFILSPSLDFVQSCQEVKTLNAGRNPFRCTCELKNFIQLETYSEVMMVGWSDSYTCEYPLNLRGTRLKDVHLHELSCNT

T2: TLR10 (Homo sapiens, UniProt Q9BXR5)
T2 sequence (Q9BXR5 20-576): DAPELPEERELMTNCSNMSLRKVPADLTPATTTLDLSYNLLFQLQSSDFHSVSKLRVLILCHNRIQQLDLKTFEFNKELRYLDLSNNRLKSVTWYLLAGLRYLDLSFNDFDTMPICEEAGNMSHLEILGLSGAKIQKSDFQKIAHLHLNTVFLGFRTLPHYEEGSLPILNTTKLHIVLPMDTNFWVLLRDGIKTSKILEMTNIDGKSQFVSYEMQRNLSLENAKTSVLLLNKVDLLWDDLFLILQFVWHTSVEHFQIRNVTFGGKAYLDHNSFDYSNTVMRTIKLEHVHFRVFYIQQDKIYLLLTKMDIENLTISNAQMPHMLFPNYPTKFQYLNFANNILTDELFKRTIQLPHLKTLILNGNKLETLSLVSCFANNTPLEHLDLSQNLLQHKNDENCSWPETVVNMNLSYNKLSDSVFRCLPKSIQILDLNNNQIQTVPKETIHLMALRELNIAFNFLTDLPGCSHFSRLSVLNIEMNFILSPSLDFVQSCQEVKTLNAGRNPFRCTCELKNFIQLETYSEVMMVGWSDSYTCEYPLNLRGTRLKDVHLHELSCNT

T3: toll-like receptor 10, extracellular domain (UniProt Q9BXR5 20-576)
T3 construct: toll-like receptor 10 (TLR10), extracellular domain; also called TLR10; TLR10 cell surface receptor
T3 sequence (looked up): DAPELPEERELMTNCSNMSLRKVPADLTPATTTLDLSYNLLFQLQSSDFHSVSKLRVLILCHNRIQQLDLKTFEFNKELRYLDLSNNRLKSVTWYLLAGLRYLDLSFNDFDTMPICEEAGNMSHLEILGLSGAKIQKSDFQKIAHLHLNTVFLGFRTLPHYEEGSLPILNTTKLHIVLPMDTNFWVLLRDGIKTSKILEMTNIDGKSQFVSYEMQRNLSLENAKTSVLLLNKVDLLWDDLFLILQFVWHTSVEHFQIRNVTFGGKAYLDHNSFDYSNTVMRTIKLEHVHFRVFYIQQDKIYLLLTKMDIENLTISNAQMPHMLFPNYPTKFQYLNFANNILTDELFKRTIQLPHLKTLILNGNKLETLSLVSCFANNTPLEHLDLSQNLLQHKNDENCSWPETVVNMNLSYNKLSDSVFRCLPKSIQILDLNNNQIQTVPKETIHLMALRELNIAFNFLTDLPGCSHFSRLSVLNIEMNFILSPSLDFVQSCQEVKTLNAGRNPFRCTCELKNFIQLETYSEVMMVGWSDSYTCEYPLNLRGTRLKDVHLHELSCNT

B1: thiopeptide TL6 (synthetic) (peptide)
chain: SWT[Nle]LFRLQSKLAISCSC
modifications: bridge (positions not given here) via pyridine‑bisazole; reading uncertain; also: macrocycle closed through a pyridine-bisazole moiety, oxazole to thiazole change
B2: thiopeptide TL17 (synthetic) (peptide)
chain: SWALLIKQIN[Nle]LY[hGln]SCSC
modifications: bridge (positions not given here) via pyridine‑bisazole; reading uncertain; also: macrocycle closed through a pyridine-bisazole moiety, oxazole to thiazole change
B3: thiopeptide TL4 (synthetic) (peptide)
chain: SWTIRFTNQNKIAFSCSC
modifications: bridge (positions not given here) via pyridine‑bisazole; reading uncertain; also: macrocycle closed through pyridine-bisazole moiety, oxazole to thiazole change
B4: thiopeptide TL3 (synthetic) (peptide)
chain: SW[hGln]ISFWLQRKVAFSCSC
modifications: bridge (positions not given here) via pyridine‑bisazole; reading uncertain; also: macrocycle closed through a pyridine-bisazole moiety, oxazole to thiazole change

Legend:
[1] = target: T1, Human TLR10 Fc Chimera protein (extracellular domain); assay: Surface plasmon resonance binding to TLR10; settings: SPR
Experimental: Reagents were purchased from Nacalai Tesque, Wako Pure Chemical Industries, Sigma-Aldrich Japan, or TCI Chemicals and were used as received. […]
Anti-HA magnetic beads were from Pierce Thermo […]
2000c spectrophotometer (Thermo Scientific) equipped with a 5 mm pathlength quartz cuvette using extinction coefficient values calculated with ExPASy ProtParam tool (https://web.expasy.org/protparam). […]
Biochemical measurements (sections 2.10 – 2.14) were performed in triplicate or more. Most […]
determination of biophysical parameters involved cell assay (CP50 and IC50), reported are standard errors of the fit; otherwise, error bars are standard deviations. […]

TLR10 [2] = target: T2, TLR10; assay: mRNA display affinity selection against TLR10, NGS abundance; format: binding; parameters: Chimera protein (extracellular domain, amino acid 20-576;); Fc (chimera); purchased R&D system #6619-TR-050; settings: for rank in pulldown(–) / rank in pulldown(+): TLR10 selection, NGS abundance rank; for rank in pulldown(+): –: not found in the final pulldown(+) libraries at the sequenced depth
TLR10 [3] = target: T2, TLR10; assay: Single-round mRNA display binding assay (qPCR), TLR10; settings: ratio of cDNA recoveries (qPCR), TLR10 pulldown over beads only, single-round selection
Serum stability assay = format: in vitro ADME; settings: human serum, 37 °C, LC/MS; for half-life at 10 µM: pH 7.6, read-out: serum stability τ1/2 (converted)
Experimental: Next, we tested the metabolic stability of the discovered thiopeptides. The compounds were incubated in human serum at 37 °C in the presence of an internal control, and the amounts of the remaining analytes were quantified by LC/MS (Figures S27 and 28). […] At the other extreme, IR11 rapidly degraded in human serum with τ1/2 = 0.5 h. […]
Kinetic parameters and affinities of the […]
2.12. Thiopeptide metabolic stability experiments
The mixtures were stirred
well and transferred to a 37 °C thermostat. […]

[4] = target: T3, toll-like receptor 10, extracellular …; assay: SPR; surface plasmon resonance of synthetic thiopeptides on their target protein; conditions in S.I. 2.10 (not shown); settings: both partners purified
[5] = TLR10 selection pulldown (-), Top100 selection hits, NGS

Molecule	koff [1] [s⁻¹]	kon [1] [M⁻¹ s⁻¹]	rank in pulldown(–) (TLR10 [2])	display P/N ratio (TLR10 [3])	half-life at 10 µM (Serum stability assay) [h]	fraction of the pulldown(−) population (TLR10 [2]; TLR10 pulldown(−) selection, NGS) [%]	Library fraction (TLR10 [2]; [5])	Raw reads (TLR10 [2]; [5])	rank in pulldown(+) (TLR10 [2])	serum stability τ1/2 (Serum stability assay) [h]	Kd [4] [nM]
C=C1NC(=O)[C@H]([C@@H](C)CC)NC(=O)[C@H](C)NC(=O)[C@H](CC(C)C)NC(=O)[C@H](CCCCN)NC(=O)[C@H](CO)NC(=O)[C@H](CCC(N)=O)NC(=O)[C@H](CC(C)C)NC(=O)[C@H](CCCNC(=N)N)NC(=O)[C@H](Cc2ccccc2)NC(=O)[C@H](CC(C)C)NC(=O)[C@H](CCCC)NC(=O)[C@H]([C@@H](C)O)NC(=O)[C@H](Cc2c[nH]c3ccccc23)NC(=O)c2ccc(-c3nc(C(=O)OC)cs3)nc2-c2csc1n2 [TL6] (HELM PEPTIDE1{W.T.[Nle].L.F.R.L.Q.S.K.L.A.I}|CHEM1{[C=C(N[*:2])c1nc(-c2nc(-c3nc(C(=O)OC)cs3)ccc2C(=O)[*:1])cs1]}$PEPTIDE1,CHEM1,1:R1-1:R1|PEPTIDE1,CHEM1,13:R2-1:R2$$$V2.0)	0.0048	7650	12	268	8.2 ± 1.2	–	–	–	–	–	–
C=C1NC(=O)[C@H](Cc2ccccc2)NC(=O)[C@H](C)NC(=O)[C@H](C(C)C)NC(=O)[C@H](CCCCN)NC(=O)[C@H](CCCNC(=N)N)NC(=O)[C@H](CCC(N)=O)NC(=O)[C@H](CC(C)C)NC(=O)[C@H](Cc2c[nH]c3ccccc23)NC(=O)[C@H](Cc2ccccc2)NC(=O)[C@H](CO)NC(=O)[C@H]([C@@H](C)CC)NC(=O)[C@H](CCCC(N)=O)NC(=O)[C@H](Cc2c[nH]c3ccccc23)NC(=O)c2ccc(-c3nc(C(=O)OC)cs3)nc2-c2csc1n2 [TL3] (HELM PEPTIDE1{W.[O=C([C@H](CCCC(=O)[*:3])N[*:1])[*:2]].I.S.F.W.L.Q.R.K.V.A.F}|PEPTIDE2{[am]}|CHEM1{[C=C(N[*:2])c1nc(-c2nc(-c3nc(C(=O)OC)cs3)ccc2C(=O)[*:1])cs1]}$PEPTIDE1,PEPTIDE2,2:R3-1:R1|PEPTIDE1,CHEM1,1:R1-1:R1|PEPTIDE1,CHEM1,13:R2-1:R2$$$V2.0; bridges inferred)	0.0056	6270	2	186	3.2 ± 0.2	8.1	0.095	11388	–	–	–
C=C1NC(=O)[C@H](CCCCN)NC(=O)[C@H]([C@@H](C)CC)NC(=O)[C@H](CCCC)NC(=O)[C@H](C(C)C)NC(=O)[C@H](CCCNC(=N)N)NC(=O)CNC(=O)[C@H]([C@@H](C)CC)NC(=O)[C@H](Cc2c[nH]c3ccccc23)NC(=O)c2ccc(-c3nc(C(=O)OC)cs3)nc2-c2csc(n2)C(=C)NC(=O)c2coc1n2 [TL19] (HELM PEPTIDE1{W.I.G.R.V.[Nle].I.K.[C=C(N[*:1])c1nc(C(=O)[*:2])co1]}|CHEM1{[C=C(N[*:2])c1nc(-c2nc(-c3nc(C(=O)OC)cs3)ccc2C(=O)[*:1])cs1]}$PEPTIDE1,CHEM1,1:R1-1:R1|PEPTIDE1,CHEM1,9:R2-1:R2$$$V2.0; bridges inferred)	0.0032	5540	22	263	7.4 ± 1.5	–	–	–	16	–	–
C=C1NC(=O)[C@H](Cc2ccccc2)NC(=O)[C@H](C)NC(=O)[C@H]([C@@H](C)CC)NC(=O)[C@H](CCCCN)NC(=O)[C@H](CC(N)=O)NC(=O)[C@H](CCC(N)=O)NC(=O)[C@H](CC(N)=O)NC(=O)[C@H]([C@@H](C)O)NC(=O)[C@H](Cc2ccccc2)NC(=O)[C@H](CCCNC(=N)N)NC(=O)[C@H]([C@@H](C)CC)NC(=O)[C@H]([C@@H](C)O)NC(=O)[C@H](Cc2c[nH]c3ccccc23)NC(=O)c2ccc(-c3nc(C(=O)OC)cs3)nc2-c2csc1n2 [TL4] (HELM PEPTIDE1{W.T.I.R.F.T.N.Q.N.K.I.A.F}|CHEM1{[C=C(N[*:2])c1nc(-c2nc(-c3nc(C(=O)OC)cs3)ccc2C(=O)[*:1])cs1]}$PEPTIDE1,CHEM1,1:R1-1:R1|PEPTIDE1,CHEM1,13:R2-1:R2$$$V2.0; bridges inferred)	0.033	47500	3	975	4.4 ± 0.3	–	–	–	7	–	–
C=C1NC(=O)[C@H](CCCC(N)=O)NC(=O)[C@H](Cc2ccc(O)cc2)NC(=O)[C@H](CC(C)C)NC(=O)[C@H](CCCC)NC(=O)[C@H](CC(N)=O)NC(=O)[C@H]([C@@H](C)O)NC(=O)[C@H](CCC(N)=O)NC(=O)[C@H](CCCCN)NC(=O)[C@H]([C@@H](C)CC)NC(=O)[C@H](CC(C)C)NC(=O)[C@H](CC(C)C)NC(=O)[C@H](C)NC(=O)[C@H](Cc2c[nH]c3ccccc23)NC(=O)c2ccc(-c3nc(C(=O)OC)cs3)nc2-c2csc1n2 [TL17] (HELM PEPTIDE1{W.A.L.L.I.K.Q.T.N.[Nle].L.Y.[O=C([C@H](CCCC(=O)[*:3])N[*:1])[*:2]]}|PEPTIDE2{[am]}|CHEM1{[C=C(N[*:2])c1nc(-c2nc(-c3nc(C(=O)OC)cs3)ccc2C(=O)[*:1])cs1]}$PEPTIDE1,PEPTIDE2,13:R3-1:R1|PEPTIDE1,CHEM1,1:R1-1:R1|PEPTIDE1,CHEM1,13:R2-1:R2$$$V2.0; bridges inferred)	0.0067	18900	9	737	6 ± 0.1	–	–	–	10	–	–
C=C1NC(=O)[C@H](Cc2c[nH]cn2)NC(=O)[C@H]([C@@H](C)CC)NC(=O)[C@H](C(C)C)NC(=O)[C@H](C(C)C)NC(=O)[C@H](CC(N)=O)NC(=O)[C@H](C(C)C)NC(=O)[C@H](CCCNC(=N)N)NC(=O)[C@H](CO)NC(=O)[C@H](CC(C)C)NC(=O)[C@H](CCC(=O)O)NC(=O)[C@H](CC(C)C)NC(=O)[C@H](CO)NC(=O)[C@H](Cc2c[nH]c3ccccc23)NC(=O)c2ccc(-c3nc(C(=O)OC)cs3)nc2-c2csc1n2 [TL20] (HELM PEPTIDE1{W.S.L.E.L.S.R.V.N.V.V.I.H}|CHEM1{[C=C(N[*:2])c1nc(-c2nc(-c3nc(C(=O)OC)cs3)ccc2C(=O)[*:1])cs1]}$PEPTIDE1,CHEM1,1:R1-1:R1|PEPTIDE1,CHEM1,13:R2-1:R2$$$V2.0; bridges inferred)	0.0078	25500	52	286	38.2 ± 6	–	–	–	–	38	–
B1	–	–	–	–	–	–	–	–	–	–	630
B2	–	–	–	–	–	–	–	–	–	–	360
B3	–	–	–	–	–	–	–	–	–	–	680
B4	–	–	–	–	–	–	–	–	–	–	890
